A value given as a limit tells only on which side of the number the result lay.

The results in this text go back to a melting point compilation (Tetko et al.; mined from patent text by program, amines drawn as free bases though some values may be those of a salt).

Consider `CCOC(=O)CCc1cn(Cc2ccc(OCc3csc(-c4ccccn4)n3)cc2)cc1-c1ccccc1`, for which the melting point was 81 to 82 °C. `CC(C)CCCC(C)C1CCC2C3CC=C4CC(OCCCCCCI)CCC4(C)C3CCC12C` (stereo not given) had a melting point of 104 °C. For the compound `COC(=O)c1ccc(OCCCOc2c(C)c(C)c(C(=O)Oc3c(C)c(C)c(C(N)=O)c(OC)c3C)c(OC)c2C)cc1`, the melting point is 202 to 204 °C. Under `CCCCCCCOc1cc(F)nc(N)n1` stands 30 to 32 °C; under `CCOC1Nc2c(O)cccc2C(=O)N2CCCC12` (stereo not given), 153 to 155 °C.

As to `Cc1nc(N2CCN(Cc3ccc(OC(F)(F)F)cc3)C2=O)sc1C(=O)NCCc1cccnc1`, the melting point was 172 to 173 °C. For `COc1ccc(-c2cc(=O)n(CC3CCCC3)nc2-c2ccc(OC)cc2)cc1` the value was 130 to 131 °C; for `CCCCCCCCC#CCC#CCC#CCCCC(=O)O`, 69 to 70 °C. For `CSc1cc(OCCC[Si](C)(C)C)c(Cl)cc1[N+](=O)[O-]` the value was 51 to 53 °C; for `N=C(NO)c1ccc(-c2ccc(Br)o2)cc1`, 116 to 117 °C; for `O=C1NCC2(CCN(Cc3ccccc3)CC2)O1`, 159 to 161 °C. Under `COc1cc(Nc2c(C#N)cnc3cc(-c4ccccc4)sc23)c(Cl)cc1Cl` stands 274 to 276 °C. Consider `COc1ccc(NC(=O)c2ccccc2F)cc1`, for which the melting point lay in the range of 83.1 to 84.3 °C. Under `COc1cccc(C=C2SC(=S)NC2=O)c1OC` stands 268 to 269 °C; under `CCc1cc(C(=O)c2ccccc2Cl)c(-n2c(C)nnc2COC(=O)c2ccc(Cl)c(Cl)c2)s1`, 117 to 119 °C. Under `Cc1nc(N)c2nc(CO)n(NC3CCOCC3)c2c1C` stands more than 250 °C; under `COC(=O)Cc1nsc(NC(=O)OCc2ccccc2)n1`, 121 to 123 °C. For `CCC(=O)c1ccnc(OC)c1` the value was 38 °C; for `CC(CS)C(=O)N1c2ccccc2CCC1C(=O)O` (stereo not given), 98 to 101 °C. Consider `CCOCCOc1ccc(-c2nc(-c3ccc(OC)cc3)nc(-c3ccc(OCCOCC)cc3O)n2)c(O)c1`, for which the melting point lay within 155 to 158 °C. On to `O=C(NNS(=O)(=O)c1cccc(F)c1)c1ccc2oc3ccccc3c2c1`, for which the melting point is 223 °C. For `O=C(O)c1ccc(N2C(=O)C3C4C=CC(C4)C3C2=O)cc1` (stereo not given) the value was 224 to 228 °C; for `O=C(O)c1ccc(Nc2cc3c4c(c2)CCCC4CCC3)cc1`, 204 to 205 °C. Under `COc1ccc(Cc2nc(C#N)c[nH]2)cc1` stands 170 to 171 °C; under `Cc1cccc(NC(=O)NCC(=O)N(CC(=O)OC(C)(C)C)c2ccccc2Nc2ccccc2)c1`, 180 °C; under `Cc1ccc(OC(C)(C)C=O)c(C#N)c1`, 60 to 64 °C.

`Cc1nc2c([N+](=O)[O-])cc(Br)cc2n1C` registered a melting point of 193 to 195 °C. For `CCCNC(=O)Nc1ccc(-c2cc3[nH]c(=O)[nH]c3nc2C)cc1` the value was more than 300 °C; for `COC(=O)CN(C)C(=O)c1c2ccc(Cl)ccc-2[nH]c1=O`, 170 to 172 °C; for `C=CCOCc1[nH]c(=O)c(CC(C)C)[n+]([O-])c1N`, 149 to 151 °C.

`COC(=O)c1ccc(-c2nnc(-c3ccc(C(C)(C)C)cc3)o2)cc1` had a melting point of 210 to 211 °C. Under `COc1c(Br)cc(Br)c2ccc(C=Cc3ccccc3)nc12` stands 150 to 152 °C; under `CC(NC(=O)n1c(=O)nc(N(C)C)n1C)c1ccccc1` (stereo not given), 103 °C. For `CS(=O)(=O)Nc1cc([C@@H](O)CNC2CCN(c3ccc(NC(=O)CCC4CCCC4)cc3)CC2)ccc1O` the value was 82 to 90 °C; for `CNC(=S)N1CCN(c2cnccn2)CC1`, 197 to 200 °C; for `COc1ccc(Cn2cnc3c(-c4ccco4)nc(C#N)nc32)cc1`, 205 to 207 °C.

For `CCN(CC)CCNC(=O)c1cc(Cl)c(N)cc1OC(C)C(C)=NO` (stereo not given), the melting point was in the range of 113 to 115 °C.

Turning to `Nc1c(F)cc(-c2ccccc2)cc1Cl`, the melting point is 105 to 107 °C. `CN(c1cc(OCCCS(C)(=O)=O)cc2cc(C(=O)O)[nH]c12)S(=O)(=O)c1ccccn1`: the melting point was 207 to 208 °C.

As for `O=C(c1ccc(O)cc1)c1ccc(O)c(Cl)c1Cl`, the melting point was in the range of 208 to 210 °C. For `Cc1oc(-c2ccccc2)nc1COc1ccc(COc2nn(C)cc2CC(=O)O)cn1` the value was 139 to 140 °C.

In turn, `O=S(=O)(NCCCCOc1ccc(-n2ccnc2)cc1)c1cc(Cl)ccc1Cl` registered a melting point of 144 to 146 °C. Under `Cc1c(C(=O)O)ccc2c3ccccc3n(Cc3ccccc3)c12` stands 215 to 216 °C.

Turning to `Cc1cc(-c2nc3ccccc3s2)ccc1N`, the melting point fell in the range of 193 to 195 °C. Under `COc1cc2c(Nc3ccc(Sc4nccn4C)c(Cl)c3)c(C#N)cnc2cc1N1CCN(C2CCN(C)CC2)CC1` stands 220 to 226 °C; under `CCNc1nc(Cl)nc2nc[nH]c12`, 237 to 239 °C; under `CN(CCOc1ccc2c(c1)OC(C)(C)C=C2c1ccc2ccccc2c1)Cc1ccccc1`, 112 to 115 °C. Under `Cc1ccc(C)c(Cn2[nH]c(N)cc2=O)c1` stands 124 °C. Under `C=CC[C@H]1CC(C(=O)O)=C[C@@H](OC(CC)CC)[C@@H]1NC(C)=O` stands 229 to 230 °C.

Compound `COC(=O)Cc1cccc(C(=O)c2ccc(O)cc2)c1` came in with a melting point of 111 to 113 °C. For `O=C(c1ccc(Cl)c([N+](=O)[O-])c1)c1nccs1` the value was 118 to 119 °C; for `CCCOC1CCCC(C2NC(=O)C2C(C)O[Si](C)(C)C(C)(C)C)C1O` (stereo not given), 119 to 121 °C; for `COC1(c2nc(Br)c(Sc3ccc(/C(C)=N/O)cc3)s2)CCOCC1`, 130 °C. Compound `c1ccc(C(c2ccccc2)(c2ccccc2)N2CCc3sccc3C2)cc1` registered a melting point of 95 °C.

`CCOC(=O)c1cn2c(nc1=O)CCC2C` (stereo not given) came in with a melting point of 130 °C. Compound `COc1ccccc1NC(=O)Nc1nc(Oc2ccc3ccccc3c2)nc(N2Cc3ccccc3CC2C(=O)O)n1` (stereo not given) yielded a melting point of 230 to 235 °C.

The compound `Clc1nsnc1-c1cccnc1` displayed a melting point of 48 to 49 °C. Under `NC(=O)c1nccn1C1Cc2c(Cl)cccc2C1=O` (stereo not given) stands 90 °C; under `CCCCCCCNC(=O)Nc1c(C(=O)NC2CCN(C(c3ccccc3)c3ccccc3)CC2)cccc1N(C)C`, 203 °C; under `CC(=O)SCCC(=O)NC(Cc1cn(C=O)c2ccccc12)C(=O)O` (racemic), 130 to 133 °C. Under `Cc1ccc(-c2[nH]c(C(C)(C)C)nc2C(=O)Nc2nccs2)cc1` stands 218 °C.

In turn, `Nc1nc(N)nc(CCC(Cl)(Cl)Cl)n1` came in with a melting point of 187 to 188 °C. Under `Cc1ccc(C2=CC(O)CN(C)C2)cc1` (stereo not given) stands 67 to 69 °C; under `Cc1ccc2c(n1)N(CCCN(C(C)C)C(C)C)c1ccccc1N(C)C2=O`, 118 to 119 °C. Compound `NC(=O)c1c(Cl)c(-c2ccccc2)n2c1CN(S(=O)(=O)c1ccc(Cl)c(Cl)c1)CC2` had a melting point of 192 to 193 °C.
